Test results taken from ChEMBL document CHEMBL1208765, “Structure-activity relationship of lupane-triterpene glycosides from Acanthopanax koreanum on spleen lymphocyte IL-2 and IFN-gamma” (2010).

Key:
Assay type in all cases: functional
[1] = tested on: Splenocyte; test: Immunomodulatory effect in mouse splenocyte assessed as increase in ConA-induced IL2 release at 25 uM by lymphoproliferation test
[2] = tested on: Splenocyte; test: Immunomodulatory effect in mouse splenocyte assessed as increase in ConA-induced IFN-gamma release at 5 uM by lymphoproliferation test
[3] = tested on: Splenocyte; test: Immunomodulatory effect in mouse splenocyte assessed as increase in ConA-induced IFN-gamma release at 100 uM by lymphoproliferation test
[4] = tested on: Splenocyte; test: Immunomodulatory effect in mouse splenocyte assessed as increase in ConA-induced IL2 release at 5 uM by lymphoproliferation test
[5] = tested on: Splenocyte; test: Immunomodulatory effect in mouse splenocyte assessed as increase in ConA-induced IFN-gamma release at 25 uM by lymphoproliferation test
[6] = tested on: Splenocyte; test: Immunomodulatory effect in mouse splenocyte assessed as increase in ConA-induced IL2 release at 100 uM by lymphoproliferation test

Compound | Activity [1] | Activity [2] | Activity [3] | Activity [4] | Activity [5] | Activity [6]
C=C(C)[C@@H]1CC[C@]2(C(=O)O[C@@H]3O[C@H](CO[C@@H]4O[C@H](CO)[C@@H](O[C@@H]5O[C@@H](C)[C@H](O)[C@@H](O)[C@H]5O)[C@H](O)[C@H]4O)[C@@H](O)[C@H](O)[C@H]3O)CC[C@]3(C)[C@H](CC[C@@H]4[C@@]5(C)CC[C@@H](O)[C@@](C)(C(=O)O)[C@@H]5CC[C@]43C)[C@@H]12 [ACANKOREOSIDE A] | 24.87 pg/mL | 2.89 pg/mL | 4.57 pg/mL | 17.04 pg/mL | 4.62 pg/mL | 29.78 pg/mL
C=C(C)[C@@H]1CC[C@]2(C(=O)O[C@@H]3O[C@H](CO[C@@H]4O[C@H](CO)[C@@H](O[C@H]5O[C@@H](C)[C@H](O)[C@@H](O)[C@H]5O)[C@H](O)[C@H]4O)[C@@H](O)[C@H](O)[C@H]3O)CC[C@]3(C)[C@H](C[C@@H](O)[C@@H]4[C@@]5(C)CC[C@@H](O)[C@@](C)(C=O)[C@@H]5CC[C@]43C)[C@@H]12 [ACANKOREOSIDE D] | 25.32 pg/mL | 3.69 pg/mL | 5.29 pg/mL | 19.26 pg/mL | 4.62 pg/mL | 41.34 pg/mL
C=C(CO)[C@@H]1CC[C@]2(C(=O)O[C@H]3O[C@@H](CO[C@H]4O[C@@H](CO)[C@H](O[C@H]5O[C@@H](C)[C@H](O)[C@@H](O)[C@H]5O)[C@@H](O)[C@@H]4O)[C@H](O)[C@@H](O)[C@@H]3O)CC[C@]3(C)[C@H](CC[C@@H]4[C@@]5(C)CC[C@@H](O)[C@@](C)(C(=O)O)[C@@H]5CC[C@]43C)[C@@H]12 [ACANKOREOSIDE F] | 23.47 pg/mL | 3.3 pg/mL | 4.2 pg/mL | 16.09 pg/mL | 4 pg/mL | 27.57 pg/mL
C=C(CO)[C@@H]1CC[C@]2(C(=O)O[C@H]3O[C@@H](CO[C@H]4O[C@@H](CO)[C@H](O[C@H]5O[C@@H](C)[C@H](O)[C@@H](O)[C@H]5O)[C@@H](O)[C@@H]4O)[C@H](O)[C@@H](O)[C@@H]3O)CC[C@]3(C)[C@H](C[C@@H](O)[C@@H]4[C@@]5(C)CC[C@@H](O)[C@@](C)(C=O)[C@@H]5CC[C@]43C)[C@@H]12 [ACANKOREOSIDE I] | 12.91 pg/mL | 1.25 pg/mL | 2.59 pg/mL | 10.07 pg/mL | 4.18 pg/mL | 14.76 pg/mL
C[C@@H]1O[C@H](O[C@@H]2[C@@H](O)[C@H](O)[C@@H](OC[C@@H]3O[C@H](OC(=O)[C@]45CC[C@@H]([C@](C)(O)CO)[C@@H]4[C@H]4CC[C@@H]6[C@@]7(C)CC[C@@H](O)[C@@](C)(C(=O)O)[C@@H]7CC[C@@]6(C)[C@]4(C)CC5)[C@@H](O)[C@H](O)[C@H]3O)O[C@H]2CO)[C@H](O)[C@H](O)[C@H]1O [ACANKOREOSIDE K] | 20.24 pg/mL | 2.78 pg/mL | 3.66 pg/mL | 16.69 pg/mL | 3.2 pg/mL | 21.57 pg/mL
COC(OC)[C@@H](C)[C@@H]1CC[C@]2(C(=O)O[C@H]3O[C@@H](CO[C@H]4O[C@@H](CO)[C@H](O[C@H]5O[C@@H](C)[C@H](O)[C@@H](O)[C@H]5O)[C@@H](O)[C@@H]4O)[C@H](O)[C@@H](O)[C@@H]3O)CC[C@]3(C)[C@H](CC[C@@H]4[C@@]5(C)CC[C@@H](O)[C@@](C)(C(=O)O)[C@@H]5CC[C@]43C)[C@@H]12 [ACANKOREOSIDE L] | 45.06 pg/mL | 3.53 pg/mL | 6.07 pg/mL | 20.68 pg/mL | 3.71 pg/mL | 74.47 pg/mL
C=C(CO)[C@@H]1CC[C@]2(C(=O)O[C@H]3O[C@@H](CO[C@H]4O[C@@H](CO)[C@H](O[C@H]5O[C@@H](C)[C@H](O)[C@@H](O)[C@H]5O)[C@@H](O)[C@@H]4O)[C@H](O)[C@@H](O)[C@@H]3O)CC[C@]3(C)[C@H](C[C@@H](O)[C@@H]4[C@@]5(C)CC[C@@H](O)[C@@](C)(C(=O)O)[C@@H]5CC[C@]43C)[C@@H]12 [ACANKOREOSIDE M] | 16.92 pg/mL | 1.57 pg/mL | 2.48 pg/mL | 15.27 pg/mL | 2.45 pg/mL | 17.26 pg/mL
C=C(CO)[C@@H]1CC[C@]2(C(=O)O[C@H]3O[C@@H](CO[C@H]4O[C@@H](CO)[C@H](O[C@H]5O[C@@H](C)[C@H](O)[C@@H](O)[C@H]5O)[C@@H](O)[C@@H]4O)[C@H](O)[C@@H](O)[C@@H]3O)CC[C@]3(C)[C@H](C[C@@H](O)[C@@H]4[C@@]5(C)CC[C@@H](O[C@@H]6O[C@H](CO)[C@@H](O)[C@H](O)[C@H]6O)C(C)(C)[C@@H]5CC[C@]43C)[C@@H]12 [ACANKOREOSIDE N] | 13.66 pg/mL | 1.5 pg/mL | 1.92 pg/mL | 17.11 pg/mL | 1.55 pg/mL | 19.06 pg/mL
CC(C)[C@]1(O)CC[C@]2(C(=O)O[C@H]3O[C@@H](CO[C@H]4O[C@@H](CO)[C@H](O[C@H]5O[C@@H](C)[C@H](O)[C@@H](O)[C@H]5O)[C@@H](O)[C@@H]4O)[C@H](O)[C@@H](O)[C@@H]3O)CC[C@]3(C)[C@H](CC[C@@H]4[C@@]5(C)CC[C@@H](O)[C@@](C)(C(=O)O)[C@@H]5CC[C@]43C)[C@H]21 [ACANKOREOSIDE O] | 11.82 pg/mL | 1.81 pg/mL | 2.44 pg/mL | 13.89 pg/mL | 1.68 pg/mL | 16.3 pg/mL
CC(=O)[C@@H]1CC[C@]2(C(=O)O[C@H]3O[C@@H](CO[C@H]4O[C@@H](CO)[C@H](O[C@H]5O[C@@H](C)[C@H](O)[C@@H](O)[C@H]5O)[C@@H](O)[C@@H]4O)[C@H](O)[C@@H](O)[C@@H]3O)CC[C@]3(C)[C@H](CC[C@@H]4[C@@]5(C)CC[C@@H](O)[C@@](C)(C(=O)O)[C@@H]5CC[C@]43C)[C@@H]12 [ACANKOREOSIDES J] | 16.14 pg/mL | 2.75 pg/mL | 4.36 pg/mL | 15.78 pg/mL | 3.78 pg/mL | 28.27 pg/mL
C=C(C)[C@@H]1CC[C@]2(C(=O)O[C@@H]3O[C@H](CO[C@@H]4O[C@H](CO)[C@@H](O[C@H]5O[C@@H](C)[C@H](O)[C@@H](O)[C@H]5O)[C@H](O)[C@H]4O)[C@@H](O)[C@H](O)[C@H]3O)CC[C@]3(C)[C@H](C[C@@H](O)[C@@H]4[C@@]5(C)CC[C@@H](O)C(C)(C)[C@@H]5CC[C@]43C)C12 (stereo partly specified) [ACANTRIFOSIDE A] | 25.57 pg/mL | 4.55 pg/mL | 5.41 pg/mL | 20.07 pg/mL | 5.23 pg/mL | 50.66 pg/mL
